Reference: patent publication US20070142462A1, “Method of Treating Cancer” (The University of Utah, priority 2000, published 2007)

How the values were obtained:
Type in all cases: cell-based, human
p65 component of NF-κB = assay: Immunohistochemical localization of p65 in M1619 cells; details: 24 hours, catalase 3,000 U/ml, apocynin 150 μg/ml, dicumarol 250 μM
Description: (§1) The effect of antioxidants on nuclear activation of NF-κB was studied by incubating near confluent (70%) cell cultures with antioxidant treatments for 1-48 hours. Nuclear protein was harvested, and EMSAs were performed using DNA consensus binding sequences, or nuclear translocation of the p65 component of NF-κB was studied by immunoperoxidase staining, as outlined below.
Immunohistochemical Localization of NF-κB. Cells grown on sterile coverslips and treated with catalase 3,000 U/ml, apocynin 150 μg/ml, or DPBS or DMSO vehicles for 24 h were fixed for 20 min on ice with 4% paraformaldehyde in DPBS with protease inhibitors, PI [Sigma protease inhibitor cocktail, 10 μl/ml, containing 4-(2-aminoethyl)benzensulfonyl fluoride (AEBSF), pepstatin A, trans-epoxysuccinyl-L-leucylamindo-(guanidino)butane (E-64), bestatin, leupeptin and aprotinin]. Cells were permeabilized by treating for 2 min with 0.1% NP-40 in DPBS/PI, washed once with cold DPBS and fixed as before for 10 min. Coverslips were incubated in 3% hydrogen peroxide for 30 min to suppress any remaining peroxidase, and washed three times in cold DPBS. The permeabilized and fixed cells were blocked for 2 hours with 2% BSA in DPBS on ice and incubated overnight at 4° C. with 1 μg/ml of anti-p65 antibody (Santa Cruz) diluted in 0.1% BSA/DPBS. Unbound anti-p65 was washed away with 2% BSA/DPBS and bound antibody was stained by incubation with biotinylated goat anti-rabbit immunoglobulin diluted 1:50 in 0.1% BSA/DPBS for 45 min on ice. Excess secondary antibody was washed away by 3 washes with 2% BSA/DPBS on ice. After washing, the cells were incubated with a streptavidin-biotin-peroxidase complex at room temperature for 1 hr, washed again, and incubated in 0.03% wt/vol 3-3′diaminobenzidine with 0.003% vol/vol hydrogen peroxide until a brown reaction product could be seen. Cells were then counterstained with eosin and mounted on glass slides before viewing under light microscopy. […]

[1] = system: Adeno-squamous lung carcinoma NCI-H596 cells; assay: MTT proliferation assay, NCI-H596 lung carcinoma; details: Catalase 3000 U/ml; 10% FBS; 48 hours; mean±SE vs control
Description: Measurement of Proliferation in Cell Cultures. […] This assay empirically distinguishes between dead and living cells.
Cell Culture Treatments. The effect of antioxidant treatments on proliferation of malignant cell lines was studied in cultures stimulated with 10% FBS. Cell numbers were quantitated by the MTT assay 24-72 hours later. In some experiments, antioxidants were added immediately after cells were plated. In other experiments, cells were plated and allowed to grow for 24 hours before fresh media with antioxidants was added, and cell numbers were studied by the MTT assay 48 hours later.
Cells stimulated with 10% FBS were plated at a density of 50,000 cells per well. DMSO and antioxidants were added to cell wells at the indicated concentrations. […] Each value represents a mean of at least 4 experiments.

NF-κB = assay: EMSA of constitutive nuclear NF-κB DNA binding, M1585; details: M1585 melanoma; catalase 3,000 U/ml for 24 hours
Description: as §1
Electrophoretic Mobility Shift Assays (EMSAs). Nuclear protein was isolated and DNA binding reactions were performed as previously described in detail, Kennedy et al., Am. J. Respir. Cell Mol. Biol. 19:366-378 (1998). Monolayers were washed twice in cold DPBS and equilibrated 10 min on ice with 0.7 ml cold cytoplasmic extraction buffer, CEB (10 mM Tris, pH 7.9, 60 mM KCl, 1 mM EDTA, 1 mM DTT) with protease inhibitors, PI (1 mM Pefabloc, 50 μg/ml antipain, 1 μg/ml leupeptin, 1 μg/ml pepstatin, 40 μg/ml bestatin, 3 μg/ml E-64 and 100 μg/ml chymostatin). […] DNA-protein binding reactions were performed with 2 μg of nuclear protein (as determined by the Pierce method) and 30-80,000 cpm of ^32P-end-labelled double-stranded DNA probe in 10 mM Tris-HCl, pH 7.5, 50 mM NaCl, 0.5 mM EDTA, 0.5 mM DTT, 1 mM MgCl2, 50 μg/ml poly dI-dC, and 4% glycerol. […] Gels were dried and analyzed by autoradiography at −80° C. using an image intensifier screen. […]

Catalase
anti-p65 staining in nuclei (nuclear translocation of NF-κB) (p65 component of NF-κB): little staining in nuclei | Percent Growth Inhibition [1]: 69 ± 4 | constitutive nuclear DNA binding activity for NF-κB (NF-κB): suppressed
